Assay results published in publication PMC6045410 (ACS Omega, 2017).

Target: FabG4 (β-ketoacyl CoA reductase, EC 1.1.1.100) (Mycobacterium tuberculosis, UniProt I6Y778)

COc1ccc(C(c2ccc(OCCN(C(C)C)C(C)C)cc2)c2cccs2)cc1 (racemic) [S-S006-830, diisopropyl-(2-{4-[(R,S)-(4-methoxy-phenyl)-thiophen-2-yl-methyl]-phenoxy}-ethyl)-amine (printed for the racemate S006-830)]
affinity pull-down on compound-linked agarose beads, 2-DE, LC-MS-MS: The pull-down of FabG4 by drug-affinity beads along with its overexpression by S-S006-830-resistant Mtb
